≈ marks a conversion by molar mass, not a printed value.
Legend:
[1] = test system: Mycobacterium tuberculosis; assay: Antitubercular activity against Mycobacterium tuberculosis H37Rv ATCC 27294 after 10 days; assay type: functional; conditions: H37Rv ATCC 27294, 240 h
[2] = Cytotoxicity against human HepG2 cells after 24 hrs by CellTiter 96 AQueous One Solution Cell Proliferation assay; assay type: cell-based
[3] = test system: Mycobacterium tuberculosis; assay: Antitubercular activity against Mycobacterium tuberculosis H37Rv infected in BALB/c mouse assessed as reduction in bacterial load in infected mouse spleen at 100 mg/kg, po administered 6 days per week for 4 weeks relative to control; assay type: functional
[4] = Oral bioavailability in CD-1 mouse at 100 mg/kg measured up to 24 hrs; assay type: ADME, organism-based; conditions: in vivo
[5] = Intrinsic clearance in mouse liver microsomes incubated for 30 mins and measured up to 30 mins by LC-MS/MS analysis; assay type: ADME, Microsome; conditions: 0.5 h
[6] = test system: Mycobacterium tuberculosis; assay: Antimycobacterial activity against Mycobacterium tuberculosis H37Rv infected in C57BL/6 mouse assessed as reduction in colony forming unit at 350 mg/kg, po administered for 8 consecutive days starting from day 1 post infection relative to control; assay type: functional
[7] = Cytotoxicity against human HepG2 cells after 48 hrs by CellTiter Glo assay; assay type: cell-based
[8] = test system: Mycobacterium tuberculosis; assay: Antitubercular activity against Mycobacterium tuberculosis H37Rv; assay type: functional
[9] = test system: Mycobacterium tuberculosis; assay: Antimycobacterial activity against Mycobacterium tuberculosis in absence of tryptophan by Alamar Blue assay; assay type: functional
[10] = test system: Mycobacterium tuberculosis; assay: Antitubercular activity against Mycobacterium tuberculosis infected in mouse assessed as reduction in bacterial load in infected mouse spleen at 200 mg/kg administered 8 days post infection and measured at 2 week relative to control; assay type: functional
[11] = test system: Mycobacterium tuberculosis; assay: Antimycobacterial activity against pan-sensitive Mycobacterium tuberculosis CI-4 incubated for 2 weeks; assay type: functional; conditions: CI-4, 336 h
[12] = test system: Mycobacterium tuberculosis; assay: Antimycobacterial activity against pan-sensitive Mycobacterium tuberculosis HN-878 incubated for 2 weeks; assay type: functional; conditions: HN-878, 336 h
[13] = Cytotoxicity against human HepG2 cells; assay type: cell-based
[14] = Intrinsic clearance in mouse liver microsomes at 1 uM in presence of NADPH measured up to 60 mins by LC-MS/MS analysis; assay type: ADME, Microsome; conditions: read-out: CLH
[15] = test system: Mycobacterium tuberculosis; assay: Antimycobacterial activity against pan-sensitive Mycobacterium tuberculosis AS2 incubated for 2 weeks; assay type: functional; conditions: AS2, 336 h
[16] = test system: Mycobacterium tuberculosis; assay: Antimycobacterial activity against pan-sensitive Mycobacterium tuberculosis CI-11 incubated for 2 weeks; assay type: functional; conditions: CI-11, 336 h
[17] = test system: Mycobacterium tuberculosis; assay: Antimycobacterial activity against pan-sensitive Mycobacterium tuberculosis AS4 incubated for 2 weeks; assay type: functional; conditions: AS4, 336 h
[18] = test system: Mycobacterium tuberculosis; assay: Antimycobacterial activity against wild-type Mycobacterium tuberculosis H37Rv infected in mouse J774 cells assessed as reduction in bacterial growth incubated for 3 days relative to control; assay type: functional
Mycobacterium marinum = assay: Antimycobacterial activity against Mycobacterium marinum infected in zebra fish embryos assessed as reduction in bacterial growth at 15 to 30 uM incubated for 5 days relative to control; assay type: functional
[19] = test system: Mycobacterium tuberculosis; assay: Antimycobacterial activity against wild-type Mycobacterium tuberculosis H37Rv incubated for 2 weeks; assay type: functional; conditions: 336 h
[20] = test system: Mycobacterium tuberculosis; assay: Antimycobacterial activity against pan-sensitive Mycobacterium tuberculosis CI-5 incubated for 2 weeks; assay type: functional; conditions: CI-5, 336 h
[21] = test system: Mycobacterium tuberculosis; assay: Antimycobacterial activity against pan-sensitive Mycobacterium tuberculosis CDC1551 incubated for 2 weeks; assay type: functional; conditions: CDC1551, 336 h
[22] = test system: Mycobacterium tuberculosis; assay: Antimycobacterial activity against Mycobacterium tuberculosis H37Rv in presence of tryptophan after 14 days by broth microdilution method; assay type: functional; conditions: 336 h
[23] = test system: Mycobacterium tuberculosis H37Rv; assay: Inhibition of Tryptophan synthase alpha in Mycobacterium tuberculosis H37Rv assessed as bactericidal activity incubated for 4 weeks by agar dilution method
[24] = Inhibition of Mycobacterium tuberculosis Anthranilate phosphoribosyltransferase expressed in Escherichia coli BL21(DE3) pRIL cells using PRPP as substrate in presence of PRAI-InGPS by fluorescence-based assay

Q: With `O=C(O)CCc1c[nH]c2ccccc12` [INDOLYLPROPIONIC ACID] as the compound, how does the MIC50 [1] read?
A: 68 µM (≈ 12.9 µg/mL)

Q: What about the CC50 at 24 h [2] of the same compound?
A: > 1000 µM

Q: And the “fold change (FC)” value [3]?
A: 7

Q: What about the bioavailability [4] of the same compound?
A: 30 to 33%

Q: Which results are given for `O=S1(=O)C[C@H](O)[C@@H](N2CCN(c3ccc(F)cc3Cl)CC2)C1`?
A: CLH [5]: < 0.5 mL/min/g; log(activity) [6]: 1.4; CC50 at 48 h [7]: > 100 µM; MIC [8]: 2.25 µM (≈ 0.785 µg/mL)

Q: With `Nc1cccc(F)c1C(=O)O` as the compound, how does the MIC [9] read?
A: 5 µM (≈ 0.776 µg/mL)

Q: What about the “fold change (FC)” value [10] of the same compound?
A: 10

Q: Which MIC [9] does the source give for `Nc1ccc(F)cc1C(=O)O` here?
A: 5 µM (≈ 0.776 µg/mL)

Q: For `N#C[C@@H]1N[C@@H](CO)[C@H]1c1ccc(-c2ccccc2F)cc1`, which MIC90 [11] is on record?
A: 1.6 µM (≈ 0.452 µg/mL)

Q: And the MIC90 [12]?
A: 3 µM (≈ 0.847 µg/mL)

Q: And the CC50 [13]?
A: > 100 µM

Q: And the microsomal CLint at 1 µM [14]?
A: 336 µL/min/mg

Q: And the MIC90 [15]?
A: 3 µM (≈ 0.847 µg/mL)

Q: What about the MIC90 [16] of the same compound?
A: 1.6 µM (≈ 0.452 µg/mL)

Q: And the MIC90 [17]?
A: 3 µM (≈ 0.847 µg/mL)

Q: What about the “fold change (FC)” value [18] of the same compound?
A: 8

Q: And the “log(activity)” value (Mycobacterium marinum)?
A: 1.5

Q: And the MIC90 [19]?
A: 3 µM (≈ 0.847 µg/mL)

Q: What about the MIC90 [20] of the same compound?
A: 3 µM (≈ 0.847 µg/mL)

Q: And the MIC90 [21]?
A: 3 µM (≈ 0.847 µg/mL)

Q: What does the source list for `CNS(=O)(=O)c1ccc2c(c1)CCN2C(=O)c1ccc(C)s1`?
A: CLH [5]: 27.1 mL/min/g; CC50 at 48 h [7]: > 100 µM

Q: With `Cc1cccc(NC(=O)COC(=O)CCc2c[nH]c3ccccc23)c1` as the compound, how does the MIC90 [22] read?
A: < 64 µM

Q: Which results are given for `CNS(=O)(=O)c1ccc2c(c1)CCN2C(=O)c1ccccc1F`?
A: CLH [5]: 39.5 mL/min/g; CC50 at 48 h [7]: > 100 µM

Q: For `NC(=O)c1ccc(CNC(=O)c2cc(-c3cccc(Cl)c3)on2)cc1`, which MIC [23] is on record?
A: 6 µg/mL (≈ 16.9 µM)

Q: Which Ki [24] does the source give for `O=C(O)c1ccccc1Nc1ccccc1C(=O)O` here?
A: 1.5 µM

Q: For `O=S1(=O)C[C@H](O)[C@@H](N2CCC(c3ccccc3Cl)CC2)C1`, which CLH [5] is on record?
A: 73.7 mL/min/g

Q: And the CC50 at 48 h [7]?
A: > 100 µM

Q: And the MIC [8]?
A: 0.5 µM (≈ 0.165 µg/mL)

Q: For `O=S1(=O)C[C@H](O)[C@@H](N2CCN(c3ccccc3Cl)CC2)C1`, which CLH [5] is on record?
A: 15.7 mL/min/g

Q: What about the CC50 at 48 h [7] of the same compound?
A: > 50 µM

From ChEMBL document CHEMBL4402538, “Mycobacterial tryptophan biosynthesis: A promising target for tuberculosis drug development?” (Bioorg Med Chem Lett, 2019)
